From patent US9586966B2, “Piperazino[1,2-a]indol-1-ones and [1,4]diazepino[1,2-a]indol-one” (Hoffmann-La Roche Inc., priority 2013, dated 2017) come the findings set out here.

Each structure is given as a SMILES string.

For series [1], the system named is human embryonic stem cell derived neural stem cells (NSCs). Nature of the series: Neural stem cell proliferation assay (neurogenesis assay, ATP levels by CellTiterGlo). The class given is cell-based. The settings on record: 96 h, concentration at which 150% activity of control (100%) is reached, NSC proliferation, ATP levels after 4 days incubation, dose response 8 μM to 8 nM. As for the experimental part: Neural Stem Cell Proliferation Assay
Neurogenic properties of small molecules are determined based on the proliferation of human embryonic stem cell derived neural stem cells (NSCs) which were derived via a dual smad inhibition as previously described (Chambers, S. M., et al., Highly efficient neural conversion of human ES and iPS cells by dual inhibition of SMAD signaling, Nature biotechnology, 2009. 27(3): p. 275-80.)
Compounds respond is measured by the increase in cells based on ATP levels (Promega:CellTiterGlo®) after an incubation period of 4 days.
NSCs are thawed and expanded over 3 passages. On the 14th day, NSCs are seeded in Polyornithin/Laminin coated 384 well plates at a cell density of 21′000 cells/cm^2 in a media volume of 38 μl. 4 hours after cell seeding, compound solutions are added at a volume of 2 μl. Stock solutions of the compounds (water, 5% DMSO) are diluted to obtain a dose response (11 points, dilution factor is 2), ranging from 8 μM to 8 nM. Controls are run to consistently determine the neurogenic properties of the cells:
Negative (neutral) control is cell culture Media (final DMSO concentration: 0.25%).
1. cell culture Media+100 ng/ml FGF2 (final DMSO concentration: 0.1%)
2. cell culture Media+20 ng/ml EGF (final DMSO concentration: 0.1%)
3. cell culture Media+100 ng/ml Wnt3a (final DMSO concentration: 0.1%)
After 4 days incubation at 37° C., 5% CO2, the amount of ATP per well is quantified. The ATP concentration is proportional to the cell number. ATP is quantified by using the Promega CellTiterGlo® kit. The CellTiterGlo® reagents contain a cell lysis buffer, a thermo stable luciferase (UltraGlo™ recombinant luciferase), magnesium and luciferin. Luciferin reacts with ATP producing oxyluciferin, AMP and light. The luminescence signal is proportional to the ATP content.
The value of negative (neutral) control is determined for each assay plate by taking the average of 16 negative control wells. The neurogenic compound response is calculated for each compound as (compound/Negative Control)*100.
The values of EC150 from the dose response curve are determined for each test compound. The EC150 is the compound concentration at which 150% activity of control (100%) is reached.
On the technique in general: In ATP-based viability assays light output follows the ATP content of the culture.

Usually melting point stands for the temperature of the solid-liquid transition. As for `Cc1c2n(c3c(CC(C)C)cc(C#N)cc13)CCCNC2=O` [Example 34, 11-Methyl-7-(2-methylpropyl)-1-oxo-2,3,4,5-tetrahydro-[1,4]diazepino[1,2-a]indole-9-carbonitrile], the melting point was determined as 235 °C. The compound further had an EC (150% of control) in series [1] of 0.13 µM.
The compound `N#Cc1cc(N2CCOCC2)c2c(c1)cc1n2CCNC1=O` [Example 46, 6-Morpholin-4-yl-1-oxo-3,4-dihydro-2H-pyrazino[1,2-a]indole-8-carbonitrile] yielded a melting point of 280 °C. In series [1], this compound gave an EC (150% of control) of 0.04 µM.
As for `Cc1c2n(c3c(N4CCS(=O)(=O)CC4)cc(C#N)cc13)CCCNC2=O` [Example 42, 7-(1,1-Dioxo-1,4-thiazinan-4-yl)-11-methyl-1-oxo-2,3,4,5-tetrahydro-[1,4]diazepino[1,2-a]indole-9-carbonitrile], the melting point came out at 393 °C. Besides, the EC (150% of control) in series [1] amounted to 0.077 µM.
With `Cc1c2n(c3c(N4CCOCC4)cc(F)cc13)CCNC2=O` [Example 6, 8-Fluoro-10-methyl-6-morpholin-4-yl-3,4-dihydro-2H-pyrazino[1,2-a]indol-1-one], the melting point is 226 °C. The same compound registered an EC (150% of control) in series [1] of 0.21 µM.
`CC(C)Cc1cc(F)cc2cc3n(c12)CCCNC3=O` [Example 22, 9-Fluoro-7-isobutyl-2,3,4,5-tetrahydro-[1,4]diazepino[1,2-a]indol-1-one] displayed a melting point of 157 °C. This compound showed an EC (150% of control) in series [1] of 0.11 µM.
For the compound `CC(C)Cc1cc(C#N)cc2cc3n(c12)CCCNC3=O` [Example 40, 7-(2-Methylpropyl)-1-oxo-2,3,4,5-tetrahydro-[1,4]diazepino[1,2-a]indole-9-carbonitrile], the melting point stood at 199 °C. Further, the EC (150% of control) in series [1] came out at 0.55 µM.
On the same counts, the results for `N#Cc1cc(N2CCOCC2)c2c(c1)cc1n2CCCNC1=O` [Example 45, 7-Morpholin-4-yl-1-oxo-2,3,4,5-tetrahydro-[1,4]diazepino[1,2-a]indole-9-carbonitrile] are 221 °C and 0.24 µM.
For `Cc1c2n(c3c(CC(C)C)cc(Cl)cc13)CCNC2=O` [Example 14, 8-Chloro-6-isobutyl-10-methyl-3,4-dihydro-2H-pyrazino[1,2-a]indol-1-one], in that order: 199 °C and 0.19 µM.
Compound `Cc1cc(Cl)cc2cc3n(c12)CCCNC3=O` [Example 28, 9-Chloro-7-methyl-2,3,4,5-tetrahydro-[1,4]diazepino[1,2-a]indol-1-one] displayed a melting point of 207 °C. In series [1], this compound had an EC (150% of control) of 4.1 µM.
In turn, `N#Cc1cc(N2CCS(=O)(=O)CC2)c2c(c1)cc1n2CCCNC1=O` [Example 43, 7-(1,1-Dioxo-1,4-thiazinan-4-yl)-1-oxo-2,3,4,5-tetrahydro-[1,4]diazepino[1,2-a]indole-9-carbonitrile] showed a melting point of 404.5 °C. The compound further came in with an EC (150% of control) in series [1] of 0.98 µM.
On the same counts, the results for `Cc1c2n(c3c(N4CCOCC4)cc(C#N)cc13)CCCNC2=O` [Example 44, 11-Methyl-7-morpholin-4-yl-1-oxo-2,3,4,5-tetrahydro-[1,4]diazepino[1,2-a]indole-9-carbonitrile] are 227 °C and 0.046 µM.
With `Cc1c2n(c3c(Cc4ccc(F)cc4)cc(F)cc13)CCNC2=O` [Example 15, 8-Fluoro-6-(4-fluoro-benzyl)-10-methyl-3,4-dihydro-2H-pyrazino[1,2-a]indol-1-one], the melting point turned out to be 178 °C. The compound also had an EC (150% of control) in series [1] of 0.16 µM.
In turn, `Cc1c2n(c3c(N4CCOCC4)cc(Cl)cc13)CCNC2=O` [Example 18, 8-Chloro-10-methyl-6-morpholin-4-yl-3,4-dihydro-2H-pyrazino[1,2-a]indol-1-one] came in with a melting point of 207 °C. In series [1], the EC (150% of control) is 0.039 µM.
`Cc1c2n(c3c(C)cc(F)cc13)CCNC2=O` [Example 5, 8-Fluoro-6,10-dimethyl-3,4-dihydro-2H-pyrazino[1,2-a]indol-1-one] displayed a melting point of 208 °C. In series [1], the EC (150% of control) is 0.074 µM.
`Cc1cc(F)cc2cc3n(c12)CCNC3=O` [Example 2, 8-Fluoro-6-methyl-3,4-dihydro-2H-pyrazino[1,2-a]indol-1-one] displayed a melting point of 250.5 °C. This compound also had an EC (150% of control) in series [1] of 0.17 µM.
Consider `CCc1cc(Cl)cc2c(C)c3n(c12)CCNC3=O` [Example 10, 8-Chloro-6-ethyl-10-methyl-3,4-dihydro-2H-pyrazino[1,2-a]indol-1-one], for which the melting point is 191 °C. In series [1], this compound displayed an EC (150% of control) of 0.34 µM.
